From patent US20120301510A1, “TOLEROGENIC SYNTHETIC NANOCARRIERS COUPLED TO CD1D-RESTRICTED ANTIGENS AND METHODS OF USE” (Selecta Biosciences, Inc., priority 2011, published 2012)

Tested on: iNKT cells
Experiment: iNKT cell activation in mice after injection of aGC and/or rapamycin, soluble or in nanocarriers (flow cytometry of liver lymphocytes)
Assay type: in vivo
Details: about 4 h after injection
Procedure: Mice were designated to groups that received PBS alone, soluble aGC, NPaGC, sol aGC+solRAPA, sol aGC+NP RAPA, NPaGC+solRAPA or NPaGC+NP RAPA. Mice were injected at 9 am and at 9.30 AM received BrefeldinA i.v. to prevent release of intracellular cytokines produced. At 1 pm, mice were sacrificed and the liver was perfused with PBS and processed to obtain a single cell suspension enriched for lymphocytes. Cells were stained with cell surface markers for iNKT cells (agc-loaded CD1d tetramers) and T cells receptor (TCRb) and activation marker CD69. The cell suspension was then permeabilized and intracellular cytokine staining was performed for Th1 cytokine IFN-γ, and Th2 cytokines IL-4 and the anti-inflammatory cytokine IL-10. Cells were acquired on a FacsCanto flow cytometer and analyzed on by FlowJo.

CCCCCCCCCCCCCCCCCCCCCCCCCC(=O)N[C@@H](CO[C@H]1O[C@H](CO)[C@H](O)[C@H](O)[C@H]1O)[C@H](O)[C@H](O)CCCCCCCCCCCCCC [aGC, α-Galactosyl Ceramide (KRN7000)]
iNKT cell activation as seen by cytokine production and upregulation of CD69 on their surface: activated
